From patent US6339146B1, “Cycloalkylated beta-glucoside” (Nikon Shokuhin Kako Co., Ltd., priority 1999, dated 2002)
pIC50: −log10 of the molar value.

Assays:
[1] = test system: β-glucosidase derived from Almond; test: β-Glucosidase inhibition test (pNP-β-Glc hydrolysis); type: biochemical; conditions: for Activity ratio (pNP-β-glucosidase activity): Almond enzyme, cycloalkyl glucoside 1 mM (table title), no inhibitor = 1.00, pH 5.0, 40° C., 10 minutes
Protocol: (§1) β-Glucosidase inhibition test was performed as follows. 10 mM p-nitrophenyl-β-glucoside (100 μl, abbreviated as pNP-β-Glc hereinafter), 1 M sodium acetate buffer (pH 5.0, 50 μl), pure water, and 100 mM inhibitor (10 μl) were taken into a short test tube so that the mixture should have a total volume of […], and preincubated at 40° C. for 5 minutes. After the incubation, the obtained mixture was added with 50 μl of enzyme solution diluted to a suitable concentration, and allowed to react at 40° C. After 10 minutes, the enzyme was inactivated by adding 500 μl of 1 M sodium carbonate to the obtained reaction mixture, and the absorbance at 405 nm was measured and used for calculation of the amount of free p-nitrophenol. As the inhibitor, cyclopropylmethyl-β-glucoside (CPAM-β-Glc), cyclopentyl-β-glucoside (CPE-β-Glc), and cyclopentylmethyl-β-glucoside (CPEM-β-Glc) all prepared by the methods of Examples 1 and 2were used. As the β-glucosidase, chromatographically purified preparations derived from Aspergillus niger, Trichoderma viride, and Almond (all from SIGMA) were used.

[2] = biological target: β-glucosidase derived from Trichoderma viride (Trichoderma viride, UniProt Q6UJY0); test: as above; type: biochemical; conditions: T. viride enzyme
Protocol: as §1

[3] = biological target: β-glucosidase derived from Aspergillus niger (Aspergillus niger, UniProt A2RAL4); test: as above; type: biochemical; conditions: for Activity ratio (pNP-β-glucosidase activity): cycloalkyl glucoside 1 mM (table title), no inhibitor = 1.00, pH 5.0, 40° C., 10 minutes
Protocol: as §1

gypsophila cut flowers = test: Aromatic substance formation inhibition effect in cut flowers (organoleptic test); type: in vivo; conditions: 0.13% (w/v, 5 mM) aqueous solution
Protocol: (§2) A 0.13% (w/v, 5 mM) aqueous solution of the CPEM-β-Glc obtained in Example 2 was prepared. The obtained aqueous solution (300 ml) was introduced into an Erlenmeyer flask, and lily, chrysanthemum, and gypsophila were put into it one for each. On the other hand, as control, the flowers were similarly put into water without the CPEM-β-Glc. After 1, 2 and 4 days, organoleptic test was performed by ten expert panelists as for the aroma emitted from these cut flowers.

lily cut flowers = test: as above; type: in vivo; conditions: 0.13% (w/v, 5 mM) aqueous solution
Protocol: as §2

[4] = test system: chrysanthemum cut flowers; test: as above; type: in vivo; conditions: 0.13% (w/v, 5 mM) aqueous solution
Protocol: as §2

[5] = test system: rose petal crude enzyme solution (pNP-β-Glc activity); test: Inhibition test for rose crude enzyme (pNP-β-Glc activity); type: biochemical, Rosa gybrida CV. Wendy
Protocol: as §1
Only petals (about 70 g) were collected from about ten marketed roses (variety; Rosa gybrida CV. Wendy), added with acetone (500 ml) cooled to −20° C., and pulverized by a homogenizer while cooled with dry ice. The obtained pulverized mixture was filtered through a Buchner funnel put with a No. 2 filter paper sheet, and sufficiently washed with acetone at −20° C. The obtained filtrate was dried in a desiccator under reduced pressure (room temperature, 3 hours) to obtain 6 g of crude enzyme powder. This powder was added to 100 mM sodium phosphate buffer (pH 7.0, 120 ml) and stirred at 4° C. for 3 hours, and the insoluble matter was removed by centrifugation. The filtrate was subjected to ultrafiltration utilizing an ultrafiltration membrane PM-10 (Amicon) to finally afford 15 ml of crude enzyme solution.
In the same manner as in Example 3, the inhibition activity of the CPEM-β-Glc obtained in Example 2 for the pNP-β-Glc activity of the above crude enzyme solution was measured. […]

[6] = cycloalkyl glucoside 1 mM (table title), no inhibitor = 1.00, pH 5.0, 40° C., 10 minutes

SMILES | Activity ratio (pNP-β-glucosidase activity) [1] | Activity ratio (pNP-β-glucosidase activity) [2, 6] | Activity ratio (pNP-β-glucosidase activity) ([3]; A. niger enzyme) | Freshness of the cut flowers (gypsophila cut flowers; added versus not added) | Aroma emitted from cut flowers (organoleptic test, ten expert panelists) (gypsophila cut flowers; after one day, versus water) | Freshness of the cut flowers (lily cut flowers; added versus not added) | Aroma emitted from cut flowers (organoleptic test, ten expert panelists) (lily cut flowers; after one day, versus water) | Freshness of the cut flowers ([4]; added versus not added) | Aroma emitted from cut flowers (organoleptic test, ten expert panelists) ([4]; after one day, versus water) | Inhibition of β-glucosidase (in words) ([1]; almond enzyme, inhibitor concentration of 1.25 mM) | Difference in 50% inhibition concentration, almond versus A. niger and T. viride β-glucosidases ([1]; ratio of 50% inhibition concentrations) | pIC50 ([1]; β-glucosidase derived from almond, concentration varied from 0 to 5 mM, read-out: 50% inhibition concentration) | activity at 1000 µM ([2]; 10 min, cycloalkyl glucoside 1 mM (table title), no inhibitor = 1.00, pH 5.0, 40° C., 10 minutes, read-out: Activity ratio (pNP-β-glucosidase activity)) | Inhibition of β-glucosidase (in words) ([2]; inhibitor concentration of 1.25 mM) | activity at 1000 µM ([3]; 10 min, pH 5, read-out: Activity ratio (pNP-β-glucosidase activity)) | Inhibition of β-glucosidase (in words) ([3]; A. niger enzyme, inhibitor concentration of 1.25 mM) | Inhibition activity for pNP-β-Glc activity of rose crude enzyme ([5]; at 3 mM) | Inhibition activity for pNP-β-Glc activity of rose crude enzyme ([5]; at 4 mM) | Inhibition activity for pNP-β-Glc activity of rose crude enzyme ([5]; at 5 mM)
OC[C@H]1O[C@@H](OC2CCCC2)[C@H](O)[C@@H](O)[C@@H]1O [CPE-β-Glc, cyclopentyl-β-glucoside] | 0.90 | 1.06 | 0.92 | – | – | – | – | – | – | – | – | – | – | – | – | – | – | – | –
OC[C@H]1O[C@@H](OCC2CC2)[C@H](O)[C@@H](O)[C@@H]1O [CPAM-β-Glc, cyclopropylmethyl-β-glucoside] | 0.86 | 1.01 | 0.94 | – | – | – | – | – | – | – | – | – | – | – | – | – | – | – | –
OCC1OC(OCC2CCCC2)C(O)C(O)C1O (stereo not drawn) [CPEM-β-Glc, cyclopentylmethyl-β-glucoside] | 0.27 | – | – | No difference | distinctly reduced | No difference | distinctly reduced | No difference | distinctly reduced | strongly inhibited | about 70 times | 3.77 | 105% | no inhibition | 99% | relatively weak inhibition | about 50% | about 70% | about 90%
